# Data: patent US20130224285A1, “ESTROGEN RECEPTOR ALPHA POLYPEPTIDE SEQUENCE, DIAGNOSTIC AND THERAPEUTIC APPLICATIONS THEREOF” (Universite Libre de Buxelles, priority 2010, published 2013)
# Residues, ends and D or L forms follow the SMILES beside them. No end group written: not given here. *: point of attachment. Cbz = O=C(OCc1ccccc1)*
# Key:
# [1] = tested on: proteasome; settings: inhibition of the proteasome; Nawaz et al. 1999 and others; cited from earlier work
# [2] = tested on: MCF-7 cells; assay: Immunoprecipitation (G20 antibody) and Western blot of the endogenous ER-alpha degradation peptide in conditioned medium of treated MCF-7 cells; format: cell-based, human; settings: conditioned medium of MCF-7 cells; estradiol 10^-8M, diethylstibestrol 10^-8M, 4-OHTamoxifen 10^-7M, Fulvestrant 10^-7M; vs control; FIG. 3; preliminary
# Method: MCF-7 breast cancer cell line was cultured for 48 hours in EMEM without Phenol-red, comprising 2 mM glutamine, 100 U/ml penicilline and 100 μg/ml streptomycine, supplemented with 10% steroid-free fetal calf serum. After three washing steps with serum/antibiotic-free EMEM without Phenol-red, the cells were cultured for 4 hours in the presence or absence of the E2 ligand dissolved in serum/antibiotic-free EMEM without Phenol-red, containing only 2 mM glutamine.
# After preclearing with 100 μl (50%) immobilised protein G on agarose beads (UltraLink®, Pierce) (2 hours at 4° C.) conditioned media (or EMEM for the negative control) were incubated with antibody G20 (Santa-Cruz) (except for the negative control) overnight at 4° C. After antibody capturing in 100 μl (50%) immobolised proteine G, the resin is heated to 85° C. for 5 minutes in Laemmli without colorant. The protein samples are subsequently separated on a Tris-Tricine 10% (Invitrogen) gel and the peptides are transferred to nitro-cellulose membranes (15% methanol; semi-dry transfer (BioRad apparatus; 24 V; 0.15 mA, 15 minutes). After blocking with 5% milk for 30 minutes, the proteins are detected with chemiluminescence (primary antibody: G20 (1/500; 2 hours); secondary antibody: anti-rabbit (Pierce; 1/6000; 1 hour). […]
# [3] = tested on: MCF-7 breast cancer cell line; assay: MCF-7 cell growth with synthetic peptides, crystal violet staining; format: cell-based, human; settings: 10^-5M, 72 hours, EMEM with 10% charcoal-stripped serum, vs control, FIG. 4
# Method: In order to provide a proof of principle that secretion of the ER-alpha breakdown product/peptide described here could relay or amplify the effect of estradiol toward the proliferation of ER-alpha-positive cells, we have treated MCF-7 cells with a synthetic peptide corresponding to this sequence (SEQ ID NO:2) and containing its post-translational modifications (FIG. 4). ER-alpha-positive MCF-7 breast cancer cell line were seeded in 96-well plates (3000 cells/well). Cells were then treated with or without (control) ER-alpha-17p or the SEQ ID NO:2 peptide both at 10^−5M for 72 hours. Cell growth was measured by crystal violet staining. Briefly, cell cultures were gently washed once with PBS, fixed with 1% glutaraldehyde in PBS (15 min, room temperature) and stained with 0.1% crystal violet (w/v in ddH2O; 30 min, room temperature). After removal of excess dye by rinsing under gently running tap water, cell-bound crystal violet was extracted with 1% Triton X-100 (v/v in ddH2O; room temperature, under agitation) and measured by spectrometry at 550 nm.
# [4] = tested on: breast cancer cell lines that are ER-alpha-positive; settings: Gallo et al. 2007, 2008; cited from earlier work
# [5] = target: T1, purified recombinant human ER-alpha (Homo sapiens, UniProt P03372); settings: Gallo et al. 2007; cited from earlier work
# T1 sequence (P03372 1-595): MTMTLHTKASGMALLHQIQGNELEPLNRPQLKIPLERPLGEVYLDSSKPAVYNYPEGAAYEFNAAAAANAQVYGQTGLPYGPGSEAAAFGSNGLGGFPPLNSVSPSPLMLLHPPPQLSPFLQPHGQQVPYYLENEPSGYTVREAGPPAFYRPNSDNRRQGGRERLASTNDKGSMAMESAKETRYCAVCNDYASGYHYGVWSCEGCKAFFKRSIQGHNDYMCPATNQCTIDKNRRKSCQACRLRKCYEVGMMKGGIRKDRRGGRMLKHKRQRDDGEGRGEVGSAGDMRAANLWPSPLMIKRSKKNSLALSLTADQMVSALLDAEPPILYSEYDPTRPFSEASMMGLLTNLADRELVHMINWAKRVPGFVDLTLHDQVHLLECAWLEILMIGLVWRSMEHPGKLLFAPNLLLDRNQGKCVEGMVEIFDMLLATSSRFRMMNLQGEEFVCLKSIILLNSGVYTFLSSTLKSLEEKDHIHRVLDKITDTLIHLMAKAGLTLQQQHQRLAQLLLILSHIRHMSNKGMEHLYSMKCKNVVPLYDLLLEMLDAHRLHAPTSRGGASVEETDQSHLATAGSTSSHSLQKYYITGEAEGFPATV
# [6] = tested on: ER-alpha receptor; settings: competition with synthetic peptide; Gallo et al. 2007; cited from earlier work
# [7] = tested on: ER-alpha; assay: ERE-driven luciferase reporter assay in MVLN cells; format: cell-based, human; settings: 10^-5M, 6 hours, serum free, FIG. 6, preliminary
# Description: In order to provide a proof of principle that secretion of the ER-alpha breakdown product/peptide described here could relay or amplify the effect of estradiol toward ER-alpha transcriptional activity, we have treated MVLN cells (MCF-7 stably transfected with an ERE-driven luciferase reporter gene; Pons et al., Biotechniques 1990; 9:450-459) with a synthetic peptide corresponding to this sequence (SEQ ID NO:2) and containing its post-translational modifications in serum free condition (FIG. 6).
# MVLN cells were cultured for 48 hours in EMEM containing 10% of charcoal-stripped serum prior treatment with E2 at 10^−10 M or ER-alpha-17p or SEQ ID NO:2 both at 10^−5M for. After 6 h treatment in serum free condition, cells were washed 2 times with PBS. Luciferase activity was then measured in cell lysates by luminometry using Luciferase Assay System (Promega) according to manufacturer instructions.
compound,measurement,setting,value
CC(=O)N[C@@H](CSC(=O)[C@]1([C@@H](O)C(C)C)NC(=O)[C@H](C)[C@@H]1O)C(=O)O [lactacystine],ER-alpha-dependent transcription,[1],diminishes ER-alpha-dependent transcription
CC/C(=C(\c1ccc(O)cc1)c1ccc(OCCN(C)C)cc1)c1ccccc1 [4-OHTamoxifen],production of the endogenous ER-alpha degradation product/peptide,[2],decrease its production
C[C@]12CC[C@@H]3c4ccc(O)cc4C[C@@H](CCCCCCCCC[S+]([O-])CCCC(F)(F)C(F)(F)F)[C@H]3[C@@H]1CC[C@@H]2O (some centres unmarked) [Fulvestrant],production of the endogenous ER-alpha degradation product/peptide,[2],decrease its production
P295LMIKRSKK303NSLALSLT311 (PLMIKRSKK(Me)NSLALSLT; listed as Homo Sapiens) [ER-alpha-17p],MCF-7 cell proliferation (growth),[3],capable of inducing proliferation of cancer cells
same,proliferation of ER-alpha-positive breast cancer cell lines,[4],increased proliferation
same,binding to purified recombinant human ER-alpha,[5],binds to purified recombinant human ER-alpha
same,transcriptional activity of the ER-alpha receptor,[6],increased transcriptional activity
CC(C)C[C@@H](C=O)NC(=O)[C@H](CC(C)C)NC(=O)[C@H](CC(C)C)NC(=O)OCc1ccccc1 [MG-132] (Cbz-Leu-Leu-Leu-aldehyde),ER-alpha-dependent transcription,[1],diminishes ER-alpha-dependent transcription
"K268RQRDDGEGRGEVGSAGDMRAANLWPSPLMIKRSKKNSLALSLT311 (KRQRDDGEGRGEVGSAGDMRAANLWPSPLMIKRSKKNSLALSLT; listed as Homo Sapiens) [SEQ ID NO:2, endogenous 44-residue ER-alpha degradation peptide K268-T311]",MCF-7 cell proliferation (growth),[3]; listed as ER-alpha-44p,capable of inducing proliferation of cancer cells
same,MCF-7 cell proliferation (growth),[3]; listed as SED ID NO:2,significant increase of their proliferation higher that the control ER-alpha-17p peptide
same,ER-alpha transcriptional activity (luciferase),[7],significant increase of the ER-alpha transcriptional activity higher than the control ER-alpha-17p peptide
